One data set has as its system Botrytis cinerea. The data set can be described thus: Test A: preventive spray on tomato seedlings, Botrytis cinerea (tomato Botrytis), visual disease rating. It counts as in vivo. The conditions noted are these: 100 = 100% disease control, 0 = no disease control relative to controls. The source says: (§1) General protocol for preparing test suspensions for Tests A-H: the test compounds were first dissolved in acetone in an amount equal to 3% of the final volume and then suspended at the desired concentration (in ppm) in acetone and purified water (50/50 mix by volume) containing 250 ppm of the surfactant Trem® 014 (polyhydric alcohol esters). The resulting test suspensions were then used in Tests A-F. Spraying a 40 ppm test suspension to the point of run-off on the test plants was the equivalent of a rate of 160 g/ha. Unless otherwise indicated, the rating values indicate a 40 ppm test suspension was used. The test suspension was sprayed to the point of run-off on tomato seedlings. The following day the seedlings were inoculated with a spore suspension of Botrytis cinerea (the causal agent of tomato Botrytis) and incubated in saturated atmosphere at 20° C. for 48 h, and then moved to a growth chamber at 27° C. for 3 days, after which time visual disease ratings were made. Results for Tests A-F are given in Table A. In the Table, a rating of 100 indicates 100% disease control and a rating of 0 indicates no disease control (relative to the controls). A dash (-) indicates no test results.

Data set [1] concerns Puccinia recondita f. sp. tritici. The data set can be described thus: Test E1: curative spray on wheat seedlings after inoculation, Puccinia recondita f. sp. tritici (wheat leaf rust), visual disease rating. It counts as in vivo. The conditions noted are these: sprayed after inoculation (curative), 100 = 100% disease control, 0 = no disease control relative to controls.
Excerpt: as §1, with “used. Wheat seedlings were inoculated with a spore suspension of Puccinia recondita f. sp. tritici (the causal agent of wheat leaf rust) and incubated in a saturated atmosphere at 20° C. for 24 h, and then moved to a growth chamber at 20° C. for 2 days. After 2 days, the” for “used. The”, “on the wheat seedlings, and then” for “on tomato seedlings. The following day”, “were moved back to the growth chamber” for “were inoculated with a spore suspension of Botrytis cinerea (the causal agent of tomato Botrytis) and incubated in saturated atmosphere”, “for 4 days. Upon removal,” for “for 48 h, and then moved to a growth chamber at 27° C. for 3 days, after which time”

Data set [2] deals with Blumeria graminis f. sp. tritici. Put plainly: Test F: preventive spray on wheat seedlings, Blumeria graminis f. sp. tritici (wheat powdery mildew), visual disease rating. The class given is in vivo. The conditions noted are these: topical, 192 h, 100 = 100% disease control, 0 = no disease control relative to controls.
Excerpt: as §1, with “on wheat” for “on tomato”, “spore dust” for “spore suspension”, “of Blumeria graminis f. sp. tritici (also known as Erysiphe graminis f. sp. tritici, the” for “of Botrytis cinerea (the”, “of wheat powdery mildew)” for “of tomato Botrytis)”, “in a growth chamber” for “in saturated atmosphere”, “for 8” for “for 48 h, and then moved to a growth chamber at 27° C. for 3”

Consider `Cc1cc(F)c(Nc2c(-c3ccc(F)cc3Cl)c(C)nn2C)c(Br)c1` [Compound 1, N-(2-bromo-6-fluoro-4-methylphenyl)-4-(2-chloro-4-fluorophenyl)-1,3-dimethyl-1H-pyrazol-5-amine], for which the melting point was 132 to 133 °C. The compound also displayed a pest or weed control at 40 µg/mL in the data set with Botrytis cinerea of 100%. Moreover, in data set [1], the “Test E1 rating (% disease control)” value was 100. The same compound yielded a pest or weed control at 40 µg/mL in data set [2] of 100%.
